Source: patent US9133141B2, “Cysteine and cystine bioisosteres to treat schizophrenia and reduce drug cravings” (Marquette University, priority 2008, dated 2015)

How the values were obtained:
rats = experiment: Prepulse inhibition of acoustic startle, phencyclidine-induced sensorimotor gating deficit; format: in vivo, rat; conditions: for inhibition of startle response when preceded by pre-pulse (sensorimotor gating): rats pretreated 60 min, PCP 1.25 mg/kg SC, FIG. 7
Description: Sensorimotor gating, a process compromised in schizophrenic patients, is often measured using prepulse inhibition whereby a mild auditory stimulus (prepulse, 2-15 db above background) precedes (100 ms) a startle-eliciting auditory stimulus (50 dB above background). Intact sensorimotor gating will result in suppression of the startle reflex when preceded by the prepulse. Since improvement in prepulse inhibition tracks improvement in symptoms that are largely insensitive to current treatments, this paradigm has become one of the most commonly used screening paradigms. FIG. 5 illustrates the capacity of PCP to disrupt prepulse inhibition, rendering the prepulse ineffective in suppressing the startle reflex. PCP is commonly used to disrupt prepulse inhibition because this abnormality, in addition to negative and cognitive symptoms, are insensitive to 1st generation antipsychotics thereby providing predictive validity.
FIG. 7 is a bar graph illustrating inhibition of a startle response in response to a load stimulus (pulse) when preceded by a pre-pulse stimulus (2-15 db above background). Prepulse inhibition is a commonly used paradigm to screen antipsychotic agents for use in treating schizophrenia. The pre-pulse stimulus presented at 15 dB above background reduced the startle response in saline controls (Sal; N=54) by >60% relative to the response elicited following exposure to the pulse only. […] This reflects sensorimotor gating deficits common to patients afflicted with schizophrenia.
In an exemplary experiment, rats are placed on a platform in a sound attenuating chamber (10.875″×14″×19.5″, Hamilton Kinder, CA) that rests on a motion sensing plate. During all sessions, background noise is held constant at 60 dB. A matching session is conducted to determine the magnitude of the average startle response for each rat. This session consists of a five minute habituation period followed by twenty trials.
Seventeen of these trials involve the presentation of a single auditory stimulus (pulse stimulus; 50 dB above the background noise), and in three of these trials, a pre-pulse stimulus (12 dB above background) is presented 100 ms before the pulse auditory stimulus.
Rats are then assigned to various treatment groups so that the magnitude of the startle response is equivalent across all groups. Two days later, a testing session is conducted to assess sensorimotor gating.
The testing session consists of a five minute habituation period, after which rats received 58 discrete trials: 26 trials during which the pulse stimulus (50 dB above background) was presented alone, eight trials each in which the pulse stimulus was preceded by a pre-pulse stimulus (5, 10, or 15 dB above background), and eight background trials with no pulse (no stimulus; background noise only).
The first six pulse alone trials are not included in the average startle stimulus, to achieve a relatively stable level of startle reactivity. The percent of pre-pulse inhibition is determined as 100−(average pre-pulse startle response/average startle stimulus alone)*100.

cocaine abusers = cocaine abusers receiving NAC; cited from earlier work
human subjects = conditions: cited from earlier work
rodents = conditions: cited from earlier work
[1] = clinical trials; cited from earlier work
[2] = in vivo; cited from earlier work
[3] = N=8/group, versus PCP alone and/or N-acetylcysteine 30 mg/kg, Fisher LSD p<0.05

Compound: tert-Butyl (1R,1′R)-2,2′-disulfanediylbis(1-(3-isopropyl-1,2,4-oxadiazol-5-yl)ethane-2,1-diyl)dicarbamate [Compound 22]
- inhibition of startle response when preceded by pre-pulse (sensorimotor gating) (rats; [3]): significant difference

Compound: CC(C)c1noc([C@@H](N)CSSC[C@H](N)c2nc(C(C)C)no2)n1 [Compound 25, (1R,1′R)-2,2′-Disulfanediylbis(1-(3-isopropyl-1,2,4-oxadiazol-5-yl)ethanamine)]
- inhibition of startle response when preceded by pre-pulse (sensorimotor gating) (rats; [3]): significant difference

Compound: c1ccc(C2(N3CCCCC3)CCCCC2)cc1 [phencyclidine]
- reduction in the startle response elicited by the pulse when preceded by the pre-pulse (rats; rats, phencyclidine only 1.25 mg/kg SC, N=50, regardless of pre-pulse intensity): failed to exhibit a reduction in the response elicited by the pulse

Compound: CC(=O)N[C@@H](CS)C(=O)O [N-acetyl cysteine, N-acetylcysteine]
- cocaine use and craving (cocaine abusers): reduction in cocaine use and craving
- safety/tolerability profile (human subjects): favorable safety/tolerability profile
- phencyclidine-induced deficits in sensorimotor gating (rats; direct delivery into the brain (prefrontal cortex), FIG. 6): reverses phencyclidine-induced deficits in sensorimotor gating
- inhibition of startle response when preceded by pre-pulse (sensorimotor gating) (rats; 30 mg/kg po): failed to exhibit sensorimotor gating
- blocking compulsive drug-seeking (rodents): effective in blocking compulsive drug-seeking
- antipsychotic efficacy [1]: clinical trials establishing the antipsychotic efficacy
- first-pass metabolism [2]: extensive first-pass metabolism
- passive transport across the blood-brain barrier [2]: limited passive transport

Compound: Cc1noc(C(CSSCC(NC(=O)OC(C)(C)C)c2nc(C)no2)NC(=O)OC(C)(C)C)n1 [Compound 23, tert-Butyl (1R,1′R)-2,2′-disulfanediylbis(1-(3-methyl-1,2,4-oxadiazol-5-yl)ethane-2,1-diyl)dicarbamate]
- inhibition of startle response when preceded by pre-pulse (sensorimotor gating) (rats; [3]): significant difference
